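Five compound concentrations were applied to cells in 96-well plates for 48 hours; endpoints were derived by simple linear interpolation of the resulting dose-response curve. GI50: concentration for 50% inhibition of growth. TGI: total growth inhibition.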
Assays:
Assay in all cases: NCI tumour cell line growth inhibition, 48 h
MALME-3M melanoma = system: MALME-3M melanoma
MDA-MB-435 = system: MDA-MB-435
UACC-62 melanoma = system: UACC-62 melanoma
SF-295 CNS = system: SF-295 CNS
MCF7 breast = system: MCF7 breast
SR leukemia = system: SR leukemia
TK-10 renal = system: TK-10 renal
A498 renal = system: A498 renal
IGROV1 ovarian = system: IGROV1 ovarian
HOP-18 NSCLC = system: HOP-18 NSCLC

Row | Structure (SMILES) | TGI (MALME-3M melanoma) [µM] | TGI (MDA-MB-435) [µM] | TGI (UACC-62 melanoma) [µM] | TGI (SF-295 CNS) [µM] | TGI (MCF7 breast) [µM] | TGI (SR leukemia) [µM] | TGI (TK-10 renal) [µM] | TGI (A498 renal) [µM] | TGI (IGROV1 ovarian) [µM] | GI50 (MALME-3M melanoma) [µM] | GI50 (UACC-62 melanoma) [µM] | GI50 (SF-295 CNS) [µM] | GI50 (HOP-18 NSCLC) [µM] | TGI (HOP-18 NSCLC) [µM] | GI50 (MCF7 breast) [µM] | GI50 (A498 renal) [µM] | GI50 (IGROV1 ovarian) [µM] | GI50 (MDA-MB-435) [µM] | GI50 (SR leukemia) [µM] | GI50 (TK-10 renal) [µM]
1 | N#Cc1c(C#N)c(-c2ccccc2)n(/N=C\c2ccccc2)c1N | > 100 | > 100 | 41.5 | 65.8 | > 100 | 82.9 | > 100 | 77.4 | 84.7 |  |  |  |  |  |  |  |  |  |  | 
2 | NC1CCCCC1N.O=S(=O)([O-])CCCN1CCN(CCO)CC1.O=S(=O)([O-])CCCN1CCN(CCO)CC1.[Pt+4] | 28.3 |  | 33.7 | > 100 | > 100 |  |  | > 100 | > 100 | 3.08 | 6.91 | 4.1 | 21.6 | > 100 | 3.26 | 6.05 | 8.14 |  |  | 
3 | COC(=O)C[C@H](CCSC)NC(=O)C[C@H](CCSC)NC(=O)C[C@H](CCSC)NC(=O)OC(C)(C)C | > 100 | > 100 | 84.3 | 51.4 | > 100 | > 100 | 42.2 | 46.4 | > 100 |  |  |  |  |  |  |  |  |  |  | 
4 | CC1(C)N=C(N)N=C(N)N1c1ccc(OCCCOc2ccccc2)c(Cl)c1 | 14.5 |  | 18.3 | > 43.7 | 14.8 |  |  | 30.2 | 7.52 |  |  |  |  | 17.6 |  |  |  |  |  | 
5 | c1ccc2c(c1)c1c3n2-c2cc(on2)C3CCC1 (configuration not stated) | > 100 | > 100 | > 100 | > 100 | > 100 | > 100 | > 100 | > 100 | > 100 |  |  |  |  |  |  |  |  |  |  | 
6 | COC(=O)C(C(=O)OC)C1CC(=O)c2c(Br)sc(Br)c21 (configuration not stated) | 40 | 40.9 | 29.6 | 60.9 | 73.2 | 34.6 | 86.7 | > 100 | 29.3 |  |  |  |  |  |  |  |  |  |  | 
7 | O=C(NC/C=C/Br)NC1CCNc2ccccc21 (configuration not stated) | 77.9 | 88.9 | 58.7 | > 100 | 47.9 | 61.8 | > 100 | 70.4 | > 100 |  |  |  |  |  |  |  |  |  |  | 
8 | Cn1c(=O)c2sc3cc4c(cc3c2c2ccccc21)sc1c(=O)n(C)c2ccccc2c14 | > 100 | > 100 | > 100 | 42.6 | > 100 | > 100 | > 100 | > 100 | > 100 |  |  |  |  |  |  |  |  |  |  | 
9 | Cc1ccc2cnc(N)c(C#Cc3cncc(C(=O)Nc4ccc(CN5CCN(C)CC5)c(C(F)(F)F)c4)c3)c2c1 | 0.62 | 0.805 | 1.35 | 1.57 | 0.718 | 1.3 | 1.29 | 1.01 | 0.869 | 0.145 | 0.628 | 0.828 |  |  | 0.105 | 0.291 | 0.231 | 0.166 | 0.162 | 0.642
10 | COC(=O)c1c(C#C[Si](C)(C)C)c(C#C[Si](C)(C)C)c(C#C[Si](C)(C)C)c(C#C[Si](C)(C)C)c1C(=O)OC | > 100 | > 100 | > 100 | > 100 | > 100 | > 100 | > 100 | > 100 | > 100 |  |  |  |  |  |  |  |  |  |  | 
11 | O=C1OC2C=CC1C1(CCOC1=O)C2 (configuration not stated) | > 100 |  | 94.6 |  |  | > 100 | > 100 | > 100 | > 100 |  |  |  |  | > 100 |  |  |  |  |  | 
12 | CCCC(=O)OC1CC(n2cc(F)c(=O)[nH]c2=O)OC1CO (configuration not stated) | > 10 | > 10 | > 10 | > 10 | > 10 | > 10 | > 8.81 | > 10 | > 10 |  |  |  |  |  |  |  |  |  |  | 
13 | COc1cc2c(cc1O)CC[C@@H]1C2CC[C@@]2(C)C1CC[C@@H]2O (some centres not stated) | > 100 | 0.927 | > 100 | 16.5 | > 100 | 5.44 | > 94.1 | 50.4 | > 100 |  |  |  |  |  |  |  |  |  |  | 

— PubChem BioAssay (NCI)
